From patent US10590440B2, “Process for producing a fermentation product from a lignocellulose-containing material” (CysBio ApS, priority 2014, dated 2020)

How the values were obtained:
Type in all cases: cell-based, Escherichia coli
[1] = system: E. coli BL21(DE3)pLysS carrying SULT1A1; test: Cell density of E. coli in media with ferulic acid, strain carrying SULT1A1 Homo sapiens (Example 4); settings: after 17 h at 37° C., inoculated at OD600 0.002
From the text: SULT1A1 from Homo sapiens (SEQ ID NO: 2) mentioned in example 1 was cloned into the plasmid vector pET-28a(+) (Novagen, Life Technologies) as follows: The gene encoding the SULT1A1 was codon optimized for expression in E. coli by GeneArt (LifeTechnologies) and synthesized such that the start codon is an Ncol restriction site. The stop codon is immediately followed by a SalI site. The Ncol and SalI fragment of this DNA piece was cloned into the pET-28a(+) digested with Ncol and SalI using T4 DNA ligase. The resulting plasmid was transformed into E. coli BL21(DE3)pLysS (Life Technologies) selecting for resistance to […] kanamycin.
(§1) The two strains BL21(DE3)pLysS and the strain carrying SULT1A1 were grown in M9 minimal media with 0.2% glucose, appropriate antibiotics for maintenance of the plasmids, and 0.1 mM IPTG for induction of expression of the sulfotransferase. We added ferulic acid to final concentration of either 2.5 mM or 5 mM (ferulic acid was dissolved in ethanol, which reached a final concentration of 2% in the media). Ferulic acid is a growth inhibitory compound found in lignocellulotic biomass hydrolysate. Cells were inoculated into the medium to an optical density at 600 nm (OD600) of 0.002 in a 1 cm light path. […] Presence of an aryl sulfotransferase removes the inhibition caused by ferulic acid.

E. coli BL21(DE3)pLysS = test: Cell density of E. coli in media with ferulic acid, strain without SULT1A1 (Example 4); settings: after 17 h at 37° C., inoculated at OD600 0.002
Protocol: as §1

E. coli MG1655 = test: Toxicity of unsulfated or sulfated product: growth rate of E. coli MG1655 (Example 3, FIG. 5); settings: M9 0.2% glucose, pH 7, 37° C.; pHCA 10-40 mM, zosteric acid 20 or 40 mM
From the text: All media preparations had been adjusted to pH 7. […] Filled squares represent growth rates in media with pHCA.

Row | Structure (SMILES) | Optical density at 600 nm ([1]; 2.5 mM ferulic acid) | Optical density at 600 nm ([1]; 5 mM ferulic acid) | Optical density at 600 nm (E. coli BL21(DE3)pLysS; 2.5 mM ferulic acid) | Optical density at 600 nm (E. coli BL21(DE3)pLysS; 5 mM ferulic acid) | Toxicity to the cells (growth rates in exponential growth phase) (E. coli MG1655)
1 | COc1cc(/C=C/C(=O)O)ccc1O [ferulic acid] | 1.410 | 1.340 | 0.680 | 0.370 | 
2 | O=C(O)/C=C/c1ccc(O)cc1 [pHCA, p-coumaric acid] |  |  |  |  | toxic to the cells
3 | O=C(O)/C=C/c1ccc(OS(=O)(=O)O)cc1 [zosteric acid] |  |  |  |  | much less so
